{
  "source": "patent US6692745B2",
  "about": "“Compositions and methods for inhibition of HIV-1 infection” (priority 2000, dated 2004)",
  "key": {"HIV": {"test_system": "HIV", "conditions": "Phase I/II; cited from earlier work"}, "[1]": {"test_system": "HIV-1 envelope-mediated fusion between HeLa-EnvJR-FL and PM1 cells", "protocol": "HIV-1 envelope-mediated fusion between HeLa-EnvJR-FL and PM1 cells was detected using a Resonance Energy Transfer (RET) assay.\nHIV-1 inhibition data were analyzed according to the Combination Index method of Chou and Talay.\nEquation (1) is a generalized form of the equations describing Michaelis-Menton enzyme kinetics, Langmuir adsorption isotherms, and Henderson-Hasselbalch ionization equilibria, for which m=1 in all cases. In the present case, K is equal to the IC50 value. K and m are determined by curve-fitting the dose-response curves.\nAfter the best-fit parameters for K and m are obtained for the experimental agents and their combination, Equation (1) is rearranged to allow for calculation of c for a given f.\nAll concentrations are those required to achieve a given degree of inhibition. Equation (2) is used when the molecules are mutually nonexclusive, i.e., have different sites of action. Since this is the likely scenario for inhibitors of HIV-1 attachment and gp41 fusion intermediates, Equation (2) was used for all Combination Index calculations. Mutually nonexclusive calculations provide a more conservative estimate of the degree of synergy that mutually exclusive calculations, for which the c1mc2m/c1c2 term is dropped. CI<1 indicates synergy, CI=1 indicates purely additive effects, and CI>1 indicates antagonism. In general, CI values are most relevant at the higher levels of inhibition that are required to achieve a measurable clinical benefit."}},
  "data": [
    {"substance": "enfuvirtide", "values": [
      {"measurement": "reduction of plasma HIV RNA levels", "setting": "HIV", "value": "≤ 2", "unit": "logs"},
      {"measurement": "concentration of the individual agent contained in the combination giving 95% inhibition", "setting": "[1]; 25:1 CD4-IgG2:T-20 mass ratio, calculated from known mass ratio", "value": 0.044, "unit": "µg/mL"},
      {"measurement": "Dose Reduction (ratio of inhibitor concentration alone v. in synergistic combination)", "setting": "[1]; 95% inhibition, 25:1 CD4-IgG2:T-20 mass ratio", "value": 5, "unit": "fold"},
      {"measurement": "K, concentration of agent required to produce the median effect (equal to the IC50 value)", "setting": "[1]; HeLa-EnvJR-FL and PM1 cells, RET after 4 h, mean of three independent experiments, best-fit to median effect equation, FIG. 1", "value": 0.017, "unit": "µg/mL"},
      {"measurement": "concentration required for inhibition of viral entry by 95%", "setting": "[1]; agent used alone, or total concentration of the 25:1 combination, calculated from fitted K and m, FIG. 3", "value": 0.21, "unit": "µg/mL"}
    ]}
  ]
}
